In ChEMBL document CHEMBL1201862, “PubChem BioAssay data set” (2004):
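In this assay, cells in 96-well plates receive the compound at five concentrations for 48 hours. Endpoints are linearly interpolated between the surrounding concentrations. Abbreviation: GI50, concentration required for 50% inhibition of growth.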 Active and inactive are the calls of the source. No stated cut-off is given here; in the data, active = GI50 up to about 1.1 µM and inactive = higher.

Assays:
Assay in all cases: NCI-60 cell line screen, 48 h
ACHN = tested on: ACHN
DMS-114 = tested on: DMS-114
HCT-15 = tested on: HCT-15
HL-60 = tested on: HL-60
HOP-62 = tested on: HOP-62
HOP-92 = tested on: HOP-92
IGROV-1 = tested on: IGROV-1
KM12 = tested on: KM12
MOLT-4 = tested on: MOLT-4
NCI-H226 = tested on: NCI-H226
OVCAR-3 = tested on: OVCAR-3
OVCAR-5 = tested on: OVCAR-5
SNB-19 = tested on: SNB-19
SW-620 = tested on: SW-620
TK-10 = tested on: TK-10
UACC-62 = tested on: UACC-62
COLO 205 = tested on: COLO 205
KM-20L2 = tested on: KM-20L2
PC-3 = tested on: PC-3

SMILES	GI50 (ACHN)	GI50 (DMS-114)	GI50 (HCT-15) [µM]	GI50 (HL-60)	GI50 (HOP-62)	GI50 (HOP-92)	GI50 (IGROV-1)	GI50 (KM12)	GI50 (MOLT-4)	GI50 (NCI-H226)	GI50 (OVCAR-3)	GI50 (OVCAR-5)	GI50 (SNB-19)	GI50 (SW-620)	GI50 (TK-10)	GI50 (UACC-62)	GI50 (COLO 205)	GI50 (KM-20L2)	GI50 (PC-3)
CCN(CC)/[N+]([O-])=N/OCC(C)O (stereo unspecified)	> 100 µM (inactive)	> 100 µM (inactive)	> 100	> 100 µM (inactive)	> 100 µM (inactive)	> 100 µM (inactive)	> 100 µM (inactive)	> 100 µM (inactive)	> 100 µM (inactive)	> 100 µM (inactive)	> 100 µM (inactive)	> 100 µM (inactive)	> 100 µM (inactive)	> 100 µM (inactive)	> 100 µM (inactive)	> 100 µM (inactive)	–	–	–
CC(/C=C/c1ccccc1)=N\N=C(C)\C=C\c1ccccc1	> 100 µM (inactive)	–	> 100	> 100 µM (inactive)	> 100 µM (inactive)	–	> 100 µM (inactive)	> 100 µM (inactive)	> 100 µM (inactive)	> 100 µM (inactive)	> 100 µM (inactive)	> 100 µM (inactive)	–	> 100 µM (inactive)	> 100 µM (inactive)	–	> 10 µM (inactive)	> 100 µM (inactive)	–
COC(=O)c1ccccc1C1CN=NC12Cc1ccc(C)cc1C2=O (stereo unspecified)	> 100 µM (inactive)	–	56.1	33.3 µM (inactive)	> 100 µM (inactive)	38.9 µM (inactive)	63.8 µM (inactive)	37.9 µM (inactive)	47.2 µM (inactive)	73.1 µM (inactive)	38.6 µM (inactive)	> 100 µM (inactive)	70.3 µM (inactive)	45.2 µM (inactive)	> 100 µM (inactive)	68.7 µM (inactive)	60.8 µM (inactive)	–	37.1 µM (inactive)
COC(=O)c1ccc(/C=N/c2cc(C)nn2-c2ccccc2)cc1	> 100 µM (inactive)	–	13.7	20.1 µM (inactive)	18.5 µM (inactive)	99.1 µM (inactive)	34.9 µM (inactive)	24.2 µM (inactive)	8.47 µM (inactive)	89.5 µM (inactive)	12 µM (inactive)	> 100 µM (inactive)	33.5 µM (inactive)	20.7 µM (inactive)	2.12 µM (inactive)	65.8 µM (inactive)	13.5 µM (inactive)	–	40.9 µM (inactive)
Cc1ccc(/C=C/C(=O)C(C)(C)CN2CCCCC2)cc1	11.2 µM (inactive)	–	3.76	–	15.7 µM (inactive)	–	11.4 µM (inactive)	3.28 µM (inactive)	2.47 µM (inactive)	13.2 µM (inactive)	2.81 µM (inactive)	15.2 µM (inactive)	2.57 µM (inactive)	2.72 µM (inactive)	11.6 µM (inactive)	11.1 µM (inactive)	3.66 µM (inactive)	2.86 µM (inactive)	–
CC(=O)NNc1nc(C)c(C(/C=C/c2ccc([N+](=O)[O-])cc2)=N/NC(N)=S)s1	> 100 µM (inactive)	–	> 100	> 100 µM (inactive)	> 100 µM (inactive)	> 100 µM (inactive)	> 100 µM (inactive)	> 100 µM (inactive)	> 100 µM (inactive)	> 100 µM (inactive)	> 100 µM (inactive)	> 100 µM (inactive)	> 100 µM (inactive)	> 100 µM (inactive)	> 100 µM (inactive)	> 100 µM (inactive)	> 100 µM (inactive)	–	> 100 µM (inactive)
N#CC1CCCC2SC(F)(F)C(F)(F)C12 (stereo unspecified)	> 100 µM (inactive)	–	> 100	19.7 µM (inactive)	> 100 µM (inactive)	> 100 µM (inactive)	> 100 µM (inactive)	> 100 µM (inactive)	26.6 µM (inactive)	> 100 µM (inactive)	> 100 µM (inactive)	> 100 µM (inactive)	> 100 µM (inactive)	> 100 µM (inactive)	> 100 µM (inactive)	> 100 µM (inactive)	> 100 µM (inactive)	–	> 100 µM (inactive)
N#Cc1nc(C#N)n(S(=O)(=O)c2ccccc2)c1NS(=O)(=O)c1ccccc1	> 100 µM (inactive)	–	> 100	> 100 µM (inactive)	> 100 µM (inactive)	> 100 µM (inactive)	> 100 µM (inactive)	> 100 µM (inactive)	> 100 µM (inactive)	> 100 µM (inactive)	> 100 µM (inactive)	> 100 µM (inactive)	> 100 µM (inactive)	> 100 µM (inactive)	> 100 µM (inactive)	> 100 µM (inactive)	> 100 µM (inactive)	–	> 100 µM (inactive)
O=C1CC2(CCNCC2)C(=O)N1N1CCOCC1	> 100 µM (inactive)	–	> 100	> 100 µM (inactive)	> 100 µM (inactive)	> 100 µM (inactive)	> 100 µM (inactive)	> 100 µM (inactive)	> 100 µM (inactive)	> 100 µM (inactive)	> 100 µM (inactive)	> 100 µM (inactive)	> 100 µM (inactive)	> 100 µM (inactive)	> 100 µM (inactive)	> 100 µM (inactive)	> 100 µM (inactive)	–	> 100 µM (inactive)
CC1(C)CC[C@]2(C(=O)O)CC[C@]3(C)[C@H](C(=O)C=C4[C@@]5(C)C=C(C#N)C(=O)C(C)(C)[C@@H]5CC[C@]43C)[C@@H]2C1 [BARDOXOLONE]	0.543 µM (active)	–	0.113	0.205 µM (active)	0.665 µM (active)	1.29 µM (inactive)	0.762 µM (active)	0.279 µM (active)	0.259 µM (active)	0.416 µM (active)	0.102 µM (active)	0.488 µM (active)	0.303 µM (active)	0.492 µM (active)	0.678 µM (active)	0.2 µM (active)	0.215 µM (active)	–	0.311 µM (active)
Cc1nc2c(O)nc3ccccc3c2o1	> 100 µM (inactive)	–	> 100	> 100 µM (inactive)	> 100 µM (inactive)	> 100 µM (inactive)	32 µM (inactive)	> 100 µM (inactive)	> 10 µM (inactive)	> 100 µM (inactive)	> 100 µM (inactive)	> 100 µM (inactive)	> 100 µM (inactive)	> 100 µM (inactive)	> 100 µM (inactive)	> 100 µM (inactive)	> 100 µM (inactive)	–	> 100 µM (inactive)
Cc1cc(Cl)ccc1Nc1sc(C(=O)c2cc3cc(Cl)ccc3o2)c(N)c1C#N	15.4 µM (inactive)	–	33	> 80.5 µM (inactive)	4.86 µM (inactive)	47 µM (inactive)	16.3 µM (inactive)	6.15 µM (inactive)	> 53.3 µM (inactive)	> 87.7 µM (inactive)	12.5 µM (inactive)	> 43.7 µM (inactive)	6.89 µM (inactive)	15.2 µM (inactive)	> 35.8 µM (inactive)	6 µM (inactive)	> 69.8 µM (inactive)	–	6.08 µM (inactive)
N#CC(c1ccc(O)cc1)N1CCN(C(C#N)c2ccc(O)cc2)CC1 (stereo unspecified)	> 100 µM (inactive)	–	97.3	> 100 µM (inactive)	20.2 µM (inactive)	23.3 µM (inactive)	51.1 µM (inactive)	> 100 µM (inactive)	> 100 µM (inactive)	34.3 µM (inactive)	> 100 µM (inactive)	> 100 µM (inactive)	24.9 µM (inactive)	> 100 µM (inactive)	> 100 µM (inactive)	64.1 µM (inactive)	> 100 µM (inactive)	–	> 100 µM (inactive)
COc1c(Br)cc2ccccc2c1-c1c(OC)c(Br)cc2ccccc12	> 100 µM (inactive)	–	> 100	25.6 µM (inactive)	> 100 µM (inactive)	> 100 µM (inactive)	> 100 µM (inactive)	79.1 µM (inactive)	6.32 µM (inactive)	> 100 µM (inactive)	> 100 µM (inactive)	> 100 µM (inactive)	> 100 µM (inactive)	> 100 µM (inactive)	> 100 µM (inactive)	> 100 µM (inactive)	> 100 µM (inactive)	–	95.9 µM (inactive)
COc1ccc(N/N=C2\CCOc3ccc(C)cc3C2=O)cc1	12.4 µM (inactive)	–	5.52	11.9 µM (inactive)	39.2 µM (inactive)	18.1 µM (inactive)	17.7 µM (inactive)	5.08 µM (inactive)	11.1 µM (inactive)	27.4 µM (inactive)	43.2 µM (inactive)	91.4 µM (inactive)	39.7 µM (inactive)	20 µM (inactive)	55.6 µM (inactive)	6.81 µM (inactive)	23.4 µM (inactive)	–	10.6 µM (inactive)
CCC1C2C=CC(CC2)N1S(=O)(=O)c1ccc(C)cc1 (stereo unspecified)	35.9 µM (inactive)	20.3 µM (inactive)	22.8	4.22 µM (inactive)	27.6 µM (inactive)	–	–	24.4 µM (inactive)	32.6 µM (inactive)	0.283 µM (active)	33.7 µM (inactive)	22.3 µM (inactive)	24.4 µM (inactive)	16.8 µM (inactive)	–	11.2 µM (inactive)	21.7 µM (inactive)	17.3 µM (inactive)	–
Cc1ccc(S(=O)(=O)NN=C2C(C)(C)CC2(C)C)cc1	> 100 µM (inactive)	–	> 100	> 100 µM (inactive)	> 100 µM (inactive)	> 100 µM (inactive)	> 100 µM (inactive)	> 100 µM (inactive)	> 100 µM (inactive)	> 100 µM (inactive)	> 100 µM (inactive)	> 100 µM (inactive)	> 100 µM (inactive)	> 100 µM (inactive)	> 100 µM (inactive)	> 100 µM (inactive)	> 100 µM (inactive)	–	> 100 µM (inactive)
